This passage reports TGI results from PubChem BioAssay (NCI).

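Cells were grown in 96-well plates and exposed to each compound for 48 hours at five concentrations; endpoints were interpolated linearly between bracketing concentrations, or set to the highest concentration if not reached. At the TGI there is no net growth.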

Test systems include LXFL 529 NSCLC; NCI-H226 lung; HOP-92 NSCLC; ACHN renal; SNB-78 CNS; OVCAR-4 ovarian; 786-0 renal; M14 melanoma; SNB-75 CNS; DMS 114 small cell lung; NCI/ADR-RES ovarian; PC-3 prostate.
Holding throughout (test): NCI tumour cell line growth inhibition, 48 h

Consider `CN(C)c1ccc(/C=C(\C#N)C(=O)c2ccccc2)cc1Br`, for which the TGI with LXFL 529 NSCLC, with NCI-H226 lung, in the test on HOP-92 NSCLC, with ACHN renal, with SNB-78 CNS and in the test with OVCAR-4 ovarian was greater than 100 µM throughout. Besides, the TGI in the test on 786-0 renal, in the test on M14 melanoma, in the test on SNB-75 CNS and with DMS 114 small cell lung was greater than 100 µM throughout.
Consider `CC(C)C(N=C1CC2CCC1(C(=O)Nc1ccccc1O)C2(C)C)c1ccccc1` (stereo not drawn), for which the TGI in the test with LXFL 529 NSCLC, in the test with NCI-H226 lung, in the test on HOP-92 NSCLC, in the test on ACHN renal, with SNB-78 CNS and in the test with OVCAR-4 ovarian was greater than 10 µM in each case. Also, the TGI with 786-0 renal, with M14 melanoma, in the test on SNB-75 CNS and in the test with DMS 114 small cell lung was greater than 10 µM throughout.
On to `O=C(C#Cc1ccccc1)Nc1ccccc1CC(c1c[nH]c2ccccc12)c1c[nH]c2ccccc12`, for which the TGI was 28.4 µM with LXFL 529 NSCLC; 35.2 µM in the test with NCI-H226 lung; 97.6 µM with SNB-78 CNS; 29.4 µM in the test with 786-0 renal; 39.6 µM in the test on M14 melanoma; greater than 100 µM with SNB-75 CNS.
On to `Cn1cnc([N+](=O)[O-])c1Sc1nnc(-c2ccc(Cl)cc2)n1C`, for which the TGI with LXFL 529 NSCLC came to 22.3 µM; with NCI-H226 lung, 65.9 µM; in the test with HOP-92 NSCLC it was 25.8 µM; in the test with ACHN renal, 29.3 µM; with SNB-78 CNS, 31.9 µM; in the test on OVCAR-4 ovarian, 27.1 µM. For the same compound, the TGI in the test on M14 melanoma stood at 26.6 µM; in the test with SNB-75 CNS, 46.7 µM; in the test on DMS 114 small cell lung, 30.5 µM.
Consider `COc1ccc(-c2oc(C=Nc3ccccc3)c([N+](=O)[O-])c2-c2ccc(OC)c(OC)c2)cc1OC`, for which the TGI in the test on LXFL 529 NSCLC, in the test on NCI-H226 lung, with HOP-92 NSCLC, with ACHN renal, in the test with SNB-78 CNS and with OVCAR-4 ovarian was greater than 100 µM throughout. The TGI in the test with 786-0 renal, with M14 melanoma, in the test on SNB-75 CNS and in the test on DMS 114 small cell lung was greater than 100 µM each time.
Turning to `O=C(Cn1cc(I)c(C(=O)NCC(O)CO)n1)NCC(O)CO` (stereo not drawn), the TGI in the test on LXFL 529 NSCLC, with NCI-H226 lung, in the test with HOP-92 NSCLC, in the test with ACHN renal, in the test on SNB-78 CNS and in the test on OVCAR-4 ovarian was greater than 100 µM throughout. For the same compound, the TGI with 786-0 renal, with M14 melanoma, with SNB-75 CNS and in the test on DMS 114 small cell lung was greater than 100 µM in each case.
As to `CCC(/C(=N/NC(=O)C[N+](C)(C)C)c1ccccc1)C1OC(=O)c2ccccc21` (stereo not drawn), the TGI in the test with LXFL 529 NSCLC, in the test on NCI-H226 lung, with HOP-92 NSCLC, in the test on ACHN renal, in the test with SNB-78 CNS and with OVCAR-4 ovarian was greater than 100 µM in each case. In addition, the TGI in the test on 786-0 renal, in the test on M14 melanoma, with SNB-75 CNS and in the test with DMS 114 small cell lung was greater than 100 µM in each case.
For the compound `CCOC1=C2N=C(C(CC)c3ccc(F)cc3)N=C2C(=O)c2ccccc21` (stereo not drawn), the TGI in the test with LXFL 529 NSCLC was greater than 90.3 µM; in the test on NCI-H226 lung, 41.6 µM; with HOP-92 NSCLC, 66.3 µM; in the test with ACHN renal it was greater than 81.6 µM; with SNB-78 CNS, 89.8 µM; with OVCAR-4 ovarian, greater than 94.4 µM. Besides, the TGI in the test with 786-0 renal is greater than 100 µM; in the test on M14 melanoma, greater than 68.3 µM; in the test on SNB-75 CNS, 81.5 µM; in the test with DMS 114 small cell lung, greater than 68.4 µM.
As for `CCN(CC)CCNC(=O)C1COc2ccc(-c3cc(=O)c4ccccc4o3)cc2O1` (stereo not drawn), the TGI was determined as 31.3 µM in the test on NCI-H226 lung; 53.9 µM in the test with HOP-92 NSCLC; 38.6 µM in the test on SNB-78 CNS; 35.8 µM in the test with OVCAR-4 ovarian; 45.8 µM in the test with NCI/ADR-RES ovarian; 42.7 µM with SNB-75 CNS.
For the compound `O=C1C2Cc3ccccc3CN2C(=O)N1CN1CCCCC1` (stereo not drawn), the TGI in the test on LXFL 529 NSCLC, in the test on NCI-H226 lung, in the test on ACHN renal, in the test on OVCAR-4 ovarian, in the test with 786-0 renal and with M14 melanoma was greater than 100 µM throughout. For the same compound, in the test on DMS 114 small cell lung, the TGI is greater than 100 µM.
`Nc1nc2c(nnn2C2C=C(CO)C(O)C2O)c(=O)[nH]1` (stereo not drawn): the TGI in the test with LXFL 529 NSCLC, with NCI-H226 lung, with HOP-92 NSCLC, in the test with ACHN renal, in the test with SNB-78 CNS and in the test with OVCAR-4 ovarian was greater than 100 µM in each case. In addition, the TGI in the test on 786-0 renal, in the test on M14 melanoma, in the test with SNB-75 CNS and in the test with DMS 114 small cell lung was greater than 100 µM throughout.
As to `c1ccc(C2SCc3nc4ccccc4n32)cc1` (stereo not drawn), the TGI in the test on NCI-H226 lung, in the test with HOP-92 NSCLC, with ACHN renal, in the test on SNB-78 CNS, in the test with OVCAR-4 ovarian and with 786-0 renal was greater than 100 µM throughout. The figures for the TGI with M14 melanoma, in the test on SNB-75 CNS and in the test with DMS 114 small cell lung were greater than 100 µM, 69.8 µM and 63.4 µM, respectively.
For the compound `CCN1CC2(CO)CCC(OC)C34C5CC6C(OC)CC(O)(C5C6OC)C(O)(C(OC)C23)C14` (stereo not drawn), the TGI in the test with NCI-H226 lung, in the test on HOP-92 NSCLC, in the test with SNB-78 CNS, with OVCAR-4 ovarian, in the test on NCI/ADR-RES ovarian and with SNB-75 CNS was greater than 375 µM in each case. In the test on DMS 114 small cell lung, this compound returned a TGI greater than 375 µM.
In the case of `C#CCN(Cc1ccc2nc(-c3ccccc3)c(Cl)nc2c1)c1ccc(Cl)c(Cl)c1`, the TGI in the test on LXFL 529 NSCLC, with HOP-92 NSCLC, in the test with ACHN renal, in the test with SNB-78 CNS, in the test on OVCAR-4 ovarian and with 786-0 renal was greater than 100 µM throughout. The TGI in the test on M14 melanoma, in the test with SNB-75 CNS and with DMS 114 small cell lung was greater than 100 µM each time.
With `Cc1ccc(C2=C(c3ccccc3)C(O)(c3ccccc3)C(c3ccccc3)=C2c2ccc(C)cc2)cc1`, the TGI with LXFL 529 NSCLC, in the test with NCI-H226 lung, in the test with ACHN renal, in the test on SNB-78 CNS, with 786-0 renal and in the test on M14 melanoma was greater than 100 µM in each case. In the test on SNB-75 CNS, this compound returned a TGI greater than 100 µM.
On to `OC[C@H](O)[C@@H](OCc1ccccc1)[C@H](NCc1ccccc1)c1cccs1`, for which the TGI with NCI-H226 lung, with HOP-92 NSCLC, with ACHN renal, in the test on OVCAR-4 ovarian, in the test with PC-3 prostate and in the test on 786-0 renal was greater than 100 µM in each case. Further, the TGI with NCI/ADR-RES ovarian, with M14 melanoma and in the test on SNB-75 CNS was greater than 100 µM in each case.
`COC(=O)C1=C(C(=O)OC)SC2(S1)C(C(=O)OC)=C(C(=O)OC)Sc1c2ssc1=O`: the TGI in the test on NCI-H226 lung was 2.97 µM; in the test with HOP-92 NSCLC it was 2.3 µM; with ACHN renal it was 2.22 µM; with OVCAR-4 ovarian, 2.79 µM; with PC-3 prostate it was 3.75 µM; in the test with 786-0 renal it was 1.21 µM. Besides, the TGI with NCI/ADR-RES ovarian stood at 2.82 µM; with M14 melanoma, 3.88 µM; in the test on SNB-75 CNS, 11.4 µM.
On to `Cc1nc2cc3[nH]c4ccccc4c(=O)c3cc2s1`, for which the TGI in the test on LXFL 529 NSCLC, in the test with NCI-H226 lung, in the test on HOP-92 NSCLC, in the test on ACHN renal, in the test on SNB-78 CNS and in the test on OVCAR-4 ovarian was greater than 100 µM throughout. The TGI in the test with 786-0 renal, in the test with M14 melanoma, in the test with SNB-75 CNS and with DMS 114 small cell lung was greater than 100 µM each time.
For the compound `CCOC(=O)C(NS(=O)(=O)c1ccccc1)(C(F)(F)F)P(=O)(OCC(C)C)OCC(C)C` (stereo not drawn), the TGI with NCI-H226 lung, in the test on HOP-92 NSCLC, with ACHN renal, in the test on OVCAR-4 ovarian, in the test with PC-3 prostate and in the test with 786-0 renal was greater than 100 µM in each case. Further, the TGI in the test on NCI/ADR-RES ovarian, in the test on M14 melanoma and in the test on SNB-75 CNS was greater than 100 µM throughout.
Turning to `C=C1C(=O)OC2C=C(C)CC3C=C(CCC=C(C)CCC12)C(=O)O3` (stereo not drawn), the TGI in the test on NCI-H226 lung was found to be 174 µM; in the test with HOP-92 NSCLC, 116 µM; in the test on SNB-78 CNS it was 222 µM; in the test on OVCAR-4 ovarian it was 131 µM; in the test on NCI/ADR-RES ovarian it was 114 µM; in the test with SNB-75 CNS, 196 µM. In the test with DMS 114 small cell lung, this compound registered a TGI of 151 µM.
Consider `c1ccc(C(OCCN2CC3CCC(C2)N3)c2ccccc2)cc1`, for which the TGI with NCI-H226 lung was greater than 100 µM; in the test with HOP-92 NSCLC, 75.6 µM; with ACHN renal it was greater than 100 µM; in the test with OVCAR-4 ovarian, greater than 100 µM; in the test with PC-3 prostate, greater than 100 µM; in the test with 786-0 renal it was greater than 100 µM. For the same compound, the TGI was greater than 100 µM in the test on NCI/ADR-RES ovarian, 32.3 µM in the test on M14 melanoma and greater than 100 µM with SNB-75 CNS.
As for `Nc1ccc2ncc(NCc3ccc(F)cc3)nc2c1`, the TGI with LXFL 529 NSCLC, in the test with NCI-H226 lung, in the test on HOP-92 NSCLC, in the test on ACHN renal, in the test on SNB-78 CNS and in the test with OVCAR-4 ovarian was greater than 100 µM in each case. In addition, the TGI in the test with 786-0 renal, in the test on M14 melanoma, in the test on SNB-75 CNS and in the test with DMS 114 small cell lung was greater than 100 µM each time.
Regarding `Cc1cccc(N=Nc2ccc(O)c(CN(C)C)c2)c1`, the TGI in the test on NCI-H226 lung is greater than 100 µM; in the test with HOP-92 NSCLC, greater than 100 µM; in the test on ACHN renal, 34.9 µM; in the test on OVCAR-4 ovarian, greater than 100 µM; in the test on PC-3 prostate, greater than 100 µM; in the test with 786-0 renal, 92.5 µM. In addition, the TGI in the test with NCI/ADR-RES ovarian worked out at 72.6 µM; with M14 melanoma, 62.2 µM; with SNB-75 CNS, 94.5 µM.
On to `C#CCN1C(=O)CN2C(Cl)(Cl)C2(c2ccccc2)c2cc(Cl)ccc21` (stereo not drawn), for which the TGI in the test with LXFL 529 NSCLC, in the test on NCI-H226 lung, with HOP-92 NSCLC, in the test with ACHN renal, with OVCAR-4 ovarian and with M14 melanoma was greater than 100 µM throughout. Moreover, in the test with DMS 114 small cell lung, the TGI was greater than 100 µM.
With `CC(=O)Nc1ccc(S(=O)(=O)Nc2cnc3ccccc3n2)cc1`, the TGI with LXFL 529 NSCLC, in the test on NCI-H226 lung, with HOP-92 NSCLC, in the test on ACHN renal, with OVCAR-4 ovarian and with 786-0 renal was greater than 100 µM each time. For the same compound, the TGI in the test on M14 melanoma, with SNB-75 CNS and in the test with DMS 114 small cell lung was greater than 100 µM each time.
